In BigSolDB 2.1:

CN/C(=C\[N+](=O)[O-])NCCSCc1csc(CN(C)C)n1
solubility (mole fraction)
Details | in acetone | in ethanol | in ethyl acetate | in methanol | in water
273.15 K | 0.00283 | 0.00287 | 0.00029 | 0.0167 | 0.0225
278.15 K | 0.0034 | 0.00381 | 0.00033 | 0.0211 | 0.0232
283.15 K | 0.00432 | 0.00487 | 0.00043 | 0.027 | 0.0238
288.15 K | 0.00552 | 0.00653 | 0.00058 | 0.0347 | 0.0247
293.15 K | 0.00701 | 0.00867 | 0.00063 | 0.0447 | 0.0257
298.15 K | 0.00806 | 0.0133 | 0.00082 | 0.0589 | 0.0297
303.15 K | 0.0103 | 0.0167 | 0.00093 | 0.0765 | 0.0325
308.15 K | 0.0128 | 0.0212 | 0.00148 | 0.103 | 0.036
313.15 K | 0.0164 | 0.0301 | 0.00187 | 0.147 | 0.0402
318.15 K | 0.0235 | 0.0376 | 0.00219 | 0.203 | 0.0463
323.15 K | 0.0385 | 0.062 | 0.00269 | – | 0.0535
328.15 K | – | 0.0955 | 0.00343 | – | 0.0653
333.15 K | – | 0.179 | 0.0042 | – | 0.0809
338.15 K | – | – | 0.0055 | – | 0.109
343.15 K | – | – | – | – | 0.164
